This is an account of results in publication PMC2877487 (Bioorganic & medicinal chemistry letters, 2009).

Where two headings read alike, the source gives them in different places.

Data set [1] in a line: Stability by HPLC peak area decrease, first order decay half-life. It counts as physicochemical. The settings on record: culture media, First order decay half-life (t1/2).
The conditions of data set [2]: buffer; cited from earlier work.

One may read the half-life as the time in which the quantity being followed falls by half. In turn, `C[C@@]12c3ccc4c(c3C(=O)c3occ(c31)C(=O)C[C@H]2OC(=O)CCC(=O)O)CCC4=O` [SA-Dmv] had a half-life in data set [1] of less than 1 min.

Regarding `COC[C@H]1OC(=O)c2coc3c2[C@@]1(C)C1=C(C3=O)[C@@H]2CCC(=O)[C@@]2(C)C[C@H]1OC(C)=O` [Wm, wortmannin], the half-life was 57.8 h in data set [2] and less than 1 min in data set [1].
